We go through seven compounds from ChEMBL document CHEMBL3853354, “Structure-activity relationships of proline modifications around the tetracyclic-indole class of NS5A inhibitors” (Bioorg Med Chem Lett, 2016).

Each structure is given as a SMILES string.

The subject of data set [1] is Hepatitis C virus subtype 1a. Kind of data set: Selectivity ratio of EC90 for NS5A Y93H mutant in HCV genotype 1a to EC90 for NS5A in HCV genotype 1a.
The nature of data set [2]: Oral bioavailability in rat at 10 mg/kg. Type of data set: ADME, organism-based. The settings on record: in vivo.
The subject of data set [3] is Hepatitis C virus subtype 1a. Kind of data set: Selectivity ratio of EC90 for NS5A L31V mutant in HCV genotype 1a to EC90 for NS5A in HCV genotype 1a.
The nature of data set [4]: Selectivity ratio of EC90 for NS5A in HCV genotype 2b to EC90 for NS5A in HCV genotype 1a.
Data set [5] is described as follows: Clearance in rat at 2 mg/kg, iv. Type of data set: ADME, organism-based. The settings on record: in vivo.
Data set [6] can be described thus: AUC in rat at 10 mg/kg, po. The settings on record: in vivo. The data set is classed as ADME, organism-based.
In data set [7] the test system is T1, Nonstructural protein 5A (Hepatitis C virus), Q5L478 [Y93H].
T1 sequence (whole entry): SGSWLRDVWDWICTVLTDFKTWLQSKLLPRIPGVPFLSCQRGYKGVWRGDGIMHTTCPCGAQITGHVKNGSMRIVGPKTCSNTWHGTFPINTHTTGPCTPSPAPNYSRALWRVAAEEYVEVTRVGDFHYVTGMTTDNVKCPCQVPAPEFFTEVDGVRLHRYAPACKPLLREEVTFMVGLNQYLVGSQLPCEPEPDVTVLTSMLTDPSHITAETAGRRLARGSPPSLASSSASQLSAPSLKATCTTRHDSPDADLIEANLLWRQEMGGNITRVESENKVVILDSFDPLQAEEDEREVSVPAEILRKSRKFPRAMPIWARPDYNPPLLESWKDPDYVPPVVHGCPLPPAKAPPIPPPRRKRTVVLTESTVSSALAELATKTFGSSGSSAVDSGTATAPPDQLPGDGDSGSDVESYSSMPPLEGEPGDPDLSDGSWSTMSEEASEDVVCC
Kind of data set: Inhibition of NS5A Y93H mutant in HCV genotype 1a assessed as reduction in replicon RNA level after 3 days by cell based RT-PCR method. The settings on record: Hepatitis C virus subtype 1a.

In data set [8] the test system is Hepatitis C virus subtype 1a. Kind of data set: Inhibition of NS5A in HCV genotype 1a assessed as reduction in replicon RNA level after 3 days by cell based RT-PCR method. (A replicon is a self-replicating genome or part of one, used to study replication in cells.)
Data set [9] has as its system Hepatitis C virus subtype 2b. Kind of data set: Inhibition of NS5A in HCV genotype 2b assessed as reduction in replicon RNA level after 3 days by cell based RT-PCR method.
Data set [10] deals with Nonstructural protein 5A (Hepatitis C virus), Q5L478 [UNDEFINED MUTATION]. Kind of data set: Inhibition of NS5A L31V mutant in HCV genotype 1a assessed as reduction in replicon RNA level after 3 days by cell based RT-PCR method. The settings on record: Hepatitis C virus subtype 1a.
Data set [11] can be described thus: Cmax in rat at 10 mg/kg, po. Type of data set: ADME, organism-based. On the set-up: dose 10 mg/kg, route oral. The settings on record: in vivo.
Data set [12] in a line: Half life in rat at 2 mg/kg, iv. The settings on record: in vivo. The data set is classed as ADME, organism-based.
Data set [13] deals with Hepatitis C virus subtype 3a. Kind of data set: Inhibition of NS5A in HCV genotype 3a assessed as reduction in replicon RNA level after 3 days by cell based RT-PCR method.

By bioavailability is commonly meant the share of a dose that reaches the circulation, judged against a reference dose that is usually intravenous. What is called clearance is the rate of elimination divided by the concentration. Higher therefore signals a high capacity for elimination. A word on the AUC: it is concentration integrated over time. Low readings indicate less exposure, high ones more exposure. A word on the EC90: it is the concentration at which the effect reaches the 90% level. The Cmax is the peak of the concentration-time curve. The half-life is how long it takes for the measured level to halve. Low readings indicate fast loss, high ones slow loss.

Take `COC(=O)N[C@H](C(=O)N1CCC[C@H]1c1ncc(-c2cc(F)c3c(c2)OC(c2ccc4c(c2)OCCC4)n2c-3cc3cc(-c4cnc([C@@H]5C[C@H]6C[C@H]6N5C(=O)[C@@H](NC(=O)OC)C(C)C)[nH]4)ccc32)[nH]1)C(C)C` (stereo partly drawn): the Selectivity ratio in [1] came to 30; in [3] it was 2; in data set [4] it was 95. The bioavailability in [2] was found to be 4%. The compound also gave a clearance in data set [5] of 11.4 mL/min/kg. Also, in data set [6], the AUC amounted to 0.63 µM·h. Further, the EC90 in data set [7] was determined as 0.12 nM; in [8], 0.004 nM; in data set [9], 0.38 nM; in data set [10] it was 0.007 nM. In addition, the Cmax in data set [11] stood at 73 nM. Besides, in data set [12], the half-life was 4.6 h.
With `COC(=O)N[C@H](C(=O)N1CCC[C@H]1c1ncc(-c2cc(F)c3c(c2)OC(c2ccc4c(c2)OCCC4)n2c-3cc3cc(-c4cnc([C@@H]5CCCN5C(=O)[C@@H](NC(=O)OC)C(C)C)[nH]4)ccc32)[nH]1)C(C)C` (stereo partly drawn), the Selectivity ratio in data set [1] came to 160; in data set [3], 1; in data set [4], 103. For the same compound, the EC90 in data set [7] was 0.48 nM; in data set [8] it was 0.003 nM; in data set [9], 0.31 nM; in data set [10] it was 0.0025 nM.
Turning to `COC(=O)N[C@H](C(=O)N1CCC[C@H]1c1ncc(-c2cc(F)c3c(c2)OC(c2ccccc2)n2c-3cc3cc(-c4cnc([C@@H]5C[C@H]6C[C@H]6N5C(=O)[C@@H](NC(=O)OC)C(C)C)[nH]4)ccc32)[nH]1)C(C)C` (stereo partly drawn), the Selectivity ratio came to 200 in [1], 26 in data set [3] and 1000 in data set [4]. Besides, the EC90 was found to be 3.17 nM in data set [7], 0.016 nM in data set [8], 16.3 nM in data set [9] and 0.42 nM in data set [10].
Regarding `COC(=O)N[C@H](C(=O)N1CCC[C@H]1c1ncc(-c2ccc3c(c2)cc2n3C(c3ccccc3)Oc3cc(-c4cnc([C@@H]5C[C@@H](F)CN5C(=O)[C@@H](NC(=O)OC)C(C)C)[nH]4)cc(F)c3-2)[nH]1)C(C)C` (stereo partly drawn), the figures for the Selectivity ratio in data set [1], in [3] and in [4] were 233, 362 and 10600, respectively. Moreover, the EC90 in data set [7] came to 1.4 nM; in data set [8], 0.006 nM; in data set [9] it was 63.6 nM; in [10], 2.17 nM.
Take `COC(=O)N[C@H](C(=O)N1CCC[C@H]1c1ncc(-c2cc(F)c3c(c2)OC(c2cccc(OC)c2)n2c-3cc3cc(-c4cnc([C@@H]5CCCN5C(=O)[C@@H](NC(=O)OC)C(C)C)[nH]4)ccc32)[nH]1)C(C)C` (stereo partly drawn): the Selectivity ratio in data set [1] is 230; in data set [3], 20; in data set [4], 570. Further, the EC90 in [8] was 0.01 nM; in [9] it was 5.72 nM; in [13], 0.07 nM.
Take `COC(=O)N[C@H](C(=O)N1CCC[C@H]1c1ncc(-c2ccc3c(c2)OC(c2cccc(OC)c2)n2c-3cc3cc(-c4cnc([C@@H]5C[C@H]6C[C@H]6N5C(=O)[C@@H](NC(=O)OC)C(C)C)[nH]4)ccc32)[nH]1)C(C)C` (stereo partly drawn): the figures for the Selectivity ratio in data set [1], in [3] and in data set [4] were 500, 10 and 360, respectively. This compound registered a bioavailability in data set [2] of 13%. Besides, the clearance in data set [5] came out at 6 mL/min/kg. The AUC in [6] is 3.64 µM·h. For the same compound, the EC90 turned out to be 6.45 nM in [7], 0.013 nM in data set [8], 4.66 nM in data set [9] and 0.13 nM in data set [10]. The compound further returned a Cmax in data set [11] of 630 nM. In data set [12], this compound had a half-life of 4.7 h.
Turning to `COC(=O)N[C@H](C(=O)N1CCC[C@H]1c1ncc(-c2ccc3c(c2)cc2n3C(c3cccc(OC)c3)Oc3cc(-c4cnc([C@@H]5C[C@@H](F)CN5C(=O)[C@@H](NC(=O)OC)C(C)C)[nH]4)ccc3-2)[nH]1)C(C)C` (stereo partly drawn), the Selectivity ratio is greater than 990 in data set [1], greater than 41 in data set [3] and greater than 3040 in [4]. Also, the 90% effect concentration (EC90) in [7] is 19.8 nM; in [8], less than 0.02 nM; in data set [9], 60.8 nM; in data set [10], 0.81 nM.
